Measured values taken from article PMC11859184, “Synthesis and Evaluation of ^68Ga- and ^177Lu-Labeled [diF-Pro^14]Bombesin(6−14) Analogs for Detection and Radioligand Therapy of Gastrin-Releasing Peptide Receptor-Expressing Cancer” (Pharmaceuticals, 2025).
Read-outs that look alike come from different tables or passages of the source.

Assays:
[1] = Ex vivo biodistribution of 68Ga-labeled tracers in PC-3 tumor-bearing mice; conditions: mouse, 1 h pi; for tissue to tissue ratio at 1 h: male, NOD.Cg-Rag1^tm1Mom Il2rg^tm1Wjl/SzJ (NRG), iv, total radioactivity; for tissue uptake at 1 h: intravenous
Procedure: PET/CT imaging and biodistribution studies were conducted using male NOD.Cg-Rag1^tm1Mom Il2rg^tm1Wjl/SzJ (NRG) mice following previously published procedures. The studies were carried out in compliance with the guidelines established by the Canadian Council on Animal Care and approved by Animal Ethics Committee of the University of British Columbia (protocol number A20-0113, approved on 30 September 2022). The mice were anaesthetized and subcutaneously implanted with 5 × 10^6 PC-3 cells (100 µL; 1:1 PBS/Matrigel) behind the left shoulder. PET/CT imaging and biodistribution studies were performed once the tumors reached a diameter of 5–8 mm, typically after approximately 4 weeks of growth.
For ex vivo biodistribution studies, the mice were injected with the ^68Ga-labeled tracer (2–4 MBq) via a lateral caudal tail vein. For blocking [^68Ga]Ga-LW02060, the mice were co-injected with 100 μg of [D-Phe^6,Leu-NHEt^13,des-Met^14]Bombesin(6–14). For blocking [^68Ga]Ga-LW02080, the mice were co-injected with 100 μg of its nonradioactive standard Ga-LW02080. At 1 h pi, the mice were euthanized by CO2 inhalation. Blood and organs/tissues of interest were collected, weighed, and counted using a gamma counter.

GRPR = molecular target: T1, GRPR (Homo sapiens, UniProt P30550); test: Fluorometric intracellular calcium release assay using PC-3 cells; assay type: cell-based; conditions: for intracellular calcium release: 50 nM ligand, n = 4
T1 construct: host or cells: PC-3 cells
Procedure: The agonist/antagonist characteristics of LW02060, Ga-LW02060, Lu-LW02060, LW02080, Ga-LW02080, and Lu-LW02080 were determined following published procedures. The PC-3 cells were obtained from ATCC (via Cedarlane, Burlington, ON, Canada). A 96-well clear bottom black plate was seeded with 5 × 10^4 PC-3 cells in 100 μL growth media per well 24 h before the assay. The loading buffer (100 μL/well) containing a calcium-sensitive dye (FLIPR Calcium 6 assay kit from Molecular Devices, San Jose, CA, USA) was added into the 96-well plate, followed by 1 h incubation at 37 °C. The plate was then transferred into a FlexStation 3 microplate reader (Molecular Devices, San Jose, CA, USA). LW02060 (50 nM), Ga-LW02060 (50 nM), Lu-LW02060 (50 nM), LW02080 (50 nM), Ga-LW02080 (50 nM), Lu-LW02080 (50 nM), [D-Phe^6,Leu-NHEt^13,des-Met^14]Bombesin(6–14) (50 nM, antagonist control), bombesin (50 nM, agonist control), adenosine triphosphate (ATP, 50 nM, positive control), or DPBS (blank control) was added, and the fluorescent signals were measured for 2 min (λEx = 485 nm; λEm = 525 nm; n = 4). The relative fluorescent units (RFU = max − min) were calculated to determine the agonistic/antagonistic characteristics of LW02060, Ga-LW02060, Lu-LW02060, LW02080, Ga-LW02080, and Lu-LW02080, respectively.

T1 sequence (P30550 whole entry): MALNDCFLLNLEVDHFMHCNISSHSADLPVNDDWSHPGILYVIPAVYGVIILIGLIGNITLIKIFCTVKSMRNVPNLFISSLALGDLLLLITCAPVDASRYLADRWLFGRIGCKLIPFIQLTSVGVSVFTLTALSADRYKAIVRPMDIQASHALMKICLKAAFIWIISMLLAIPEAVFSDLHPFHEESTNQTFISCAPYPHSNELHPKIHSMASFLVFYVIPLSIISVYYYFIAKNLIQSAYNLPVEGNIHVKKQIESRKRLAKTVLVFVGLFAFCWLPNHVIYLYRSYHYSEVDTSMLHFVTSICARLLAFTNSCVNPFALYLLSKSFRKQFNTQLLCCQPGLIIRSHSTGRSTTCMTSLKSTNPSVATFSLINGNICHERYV

CC(C)C[C@@H](CN1CC(F)(F)C[C@H]1C(N)=O)NC(=O)[C@H](Cc1c[nH]cn1)NC(=O)CN(C)C(=O)[C@@H](NC(=O)[C@H](C)NC(=O)[C@H](Cc1c[nH]c2ccccc12)NC(=O)[C@H](CCC(N)=O)NC(=O)[C@@H](Cc1ccccc1)NC(=O)CN1CCC(NC(=O)CN2CCN(CC(=O)O)CCN(CC(=O)O)CCN(CC(=O)O)CC2)CC1)C(C)C [[^68Ga]Ga-LW02080, metal not drawn]
tissue to tissue ratio at 1 h ([1]; tumor/blood, blocked (100 µg blocking agent co-injected), read-out: Tumor/blood uptake ratio): 0.87 ± 0.15 | tissue to tissue ratio at 1 h ([1]; tumor/blood, n = 4, read-out: Tumor/blood uptake ratio): 22.7 ± 4.13 | tissue to tissue ratio at 1 h ([1]; tumor/bone, blocked (100 µg blocking agent co-injected), read-out: Tumor/bone uptake ratio): 5.52 ± 0.68 | tissue to tissue ratio at 1 h ([1]; tumor/bone, n = 4, read-out: Tumor/bone uptake ratio): 69.8 ± 13.7 | tissue to tissue ratio at 1 h ([1]; tumor/kidney, blocked (100 µg blocking agent co-injected), read-out: Tumor/kidney uptake ratio): 0.14 ± 0.03 | tissue to tissue ratio at 1 h ([1]; tumor/kidney, n = 4, read-out: Tumor/kidney uptake ratio): 3.18 ± 0.75 | tissue to tissue ratio at 1 h ([1]; tumor/muscle, blocked (100 µg blocking agent co-injected), read-out: Tumor/muscle uptake ratio): 3.61 ± 0.14 | tissue to tissue ratio at 1 h ([1]; tumor/muscle, n = 4, read-out: Tumor/muscle uptake ratio): 117 ± 18.6 | tissue to tissue ratio at 1 h ([1]; tumor/pancreas, blocked (100 µg blocking agent co-injected), read-out: Tumor/pancreas uptake ratio): 3.47 ± 0.64 | tissue to tissue ratio at 1 h ([1]; tumor/pancreas, n = 4, read-out: Tumor/pancreas uptake ratio): 18.4 ± 2.86 | tissue uptake at 1 h ([1]; PC-3 tumor, 100 ug, blocked (100 µg blocking agent co-injected), read-out: PC-3 tumor uptake): 1.71 ± 0.39 %ID/g | tissue uptake at 1 h ([1]; PC-3 tumor, n = 4, read-out: PC-3 tumor uptake): 7.36 ± 1.33 %ID/g | tissue uptake at 1 h ([1]; adrenal glands, 100 ug, blocked (100 µg blocking agent co-injected), read-out: Adrenal glands uptake): 0.69 ± 0.05 %ID/g | tissue uptake at 1 h ([1]; adrenal glands, n = 4, read-out: Adrenal glands uptake): 0.39 %ID/g | tissue uptake at 1 h ([1]; blood, 100 ug, blocked (100 µg blocking agent co-injected), read-out: Blood uptake): 2.02 ± 0.7 %ID/g | tissue uptake at 1 h ([1]; blood, n = 4, read-out: Blood uptake): 0.33 ± 0.08 %ID/g | tissue uptake at 1 h ([1]; bone, 100 ug, blocked (100 µg blocking agent co-injected), read-out: Bone uptake): 0.31 ± 0.06 %ID/g | tissue uptake at 1 h ([1]; bone, n = 4, read-out: Bone uptake): 0.11 ± 0.02 %ID/g | tissue uptake at 1 h ([1]; brain, 100 ug, blocked (100 µg blocking agent co-injected), read-out: Brain uptake): 0.06 ± 0.03 %ID/g | tissue uptake at 1 h ([1]; brain, n = 4, read-out: Brain uptake): 0.01 %ID/g | tissue uptake at 1 h ([1]; fat, 100 ug, blocked (100 µg blocking agent co-injected), read-out: Fat uptake): 0.25 ± 0.04 %ID/g | tissue uptake at 1 h ([1]; fat, n = 4, read-out: Fat uptake): 0.03 ± 0.01 %ID/g | tissue uptake at 1 h ([1]; heart, 100 ug, blocked (100 µg blocking agent co-injected), read-out: Heart uptake): 0.66 ± 0.18 %ID/g | tissue uptake at 1 h ([1]; heart, n = 4, read-out: Heart uptake): 0.11 ± 0.03 %ID/g | tissue uptake at 1 h ([1]; kidneys, 100 ug, blocked (100 µg blocking agent co-injected), read-out: Kidneys uptake): 11.2 ± 1.02 %ID/g | tissue uptake at 1 h ([1]; kidneys, n = 4, read-out: Kidneys uptake): 2.42 ± 0.81 %ID/g | tissue uptake at 1 h ([1]; large intestine, 100 ug, blocked (100 µg blocking agent co-injected), read-out: Large intestine uptake): 0.33 ± 0.1 %ID/g | tissue uptake at 1 h ([1]; large intestine, n = 4, read-out: Large intestine uptake): 0.3 ± 0.09 %ID/g | tissue uptake at 1 h ([1]; liver, 100 ug, blocked (100 µg blocking agent co-injected), read-out: Liver uptake): 1.05 ± 0.39 %ID/g | tissue uptake at 1 h ([1]; liver, n = 4, read-out: Liver uptake): 0.31 ± 0.07 %ID/g | tissue uptake at 1 h ([1]; lungs, 100 ug, blocked (100 µg blocking agent co-injected), read-out: Lungs uptake): 1.52 ± 0.44 %ID/g | tissue uptake at 1 h ([1]; lungs, n = 4, read-out: Lungs uptake): 0.28 ± 0.05 %ID/g | tissue uptake at 1 h ([1]; muscle, 100 ug, blocked (100 µg blocking agent co-injected), read-out: Muscle uptake): 0.53 ± 0.06 %ID/g | tissue uptake at 1 h ([1]; muscle, n = 4, read-out: Muscle uptake): 0.06 ± 0.02 %ID/g | tissue uptake at 1 h ([1]; pancreas, 100 ug, blocked (100 µg blocking agent co-injected), read-out: Pancreas uptake): 0.51 ± 0.18 %ID/g | tissue uptake at 1 h ([1]; pancreas, n = 4, read-out: Pancreas uptake): 0.38 ± 0.04 %ID/g | tissue uptake at 1 h ([1]; small intestine, 100 ug, blocked (100 µg blocking agent co-injected), read-out: Small intestine uptake): 1.04 ± 0.48 %ID/g | tissue uptake at 1 h ([1]; small intestine, n = 4, read-out: Small intestine uptake): 0.24 ± 0.07 %ID/g | tissue uptake at 1 h ([1]; spleen, 100 ug, blocked (100 µg blocking agent co-injected), read-out: Spleen uptake): 0.56 ± 0.17 %ID/g | tissue uptake at 1 h ([1]; spleen, n = 4, read-out: Spleen uptake): 0.18 ± 0.05 %ID/g | tissue uptake at 1 h ([1]; stomach, 100 ug, blocked (100 µg blocking agent co-injected), read-out: Stomach uptake): 0.38 ± 0.2 %ID/g | tissue uptake at 1 h ([1]; stomach, n = 4, read-out: Stomach uptake): 0.08 ± 0.04 %ID/g | tissue uptake at 1 h ([1]; testes, 100 ug, blocked (100 µg blocking agent co-injected), read-out: Testes uptake): 0.63 ± 0.2 %ID/g | tissue uptake at 1 h ([1]; testes, n = 4, read-out: Testes uptake): 0.12 ± 0.03 %ID/g

DOTA-Pip-[D-Phe^6,NMe-Gly^11,Leu^13(ψ)diF-Pro^14]Bombesin(6–14) [LW02080]
agonist/antagonist characteristics (GRPR): GRPR antagonists | intracellular calcium release (GRPR): 11.4 ± 0.32 RFU

DOTA-Pip-[D-Phe^6,Tle^10,NMe-His^12,diF-Pro^14]Bombesin(6–14) [LW02060]
agonist/antagonist characteristics (GRPR): GRPR agonists | intracellular calcium release (GRPR): 377 ± 41.9 RFU
